Source: article PMC8379015, “Resistance of Mycobacterium tuberculosis to indole 4-carboxamides occurs through alterations in drug metabolism and tryptophan biosynthesis” (Cell Chemical Biology, 2021)
Values after ≈ are worked out from the molar mass of the structure shown. Where two headings read alike, the source gives them in different places.

Experiments:
TrpAB α reaction = molecular target: T1, TrpAB α reaction (Mycobacterium tuberculosis, UniProt P9WFX9+P9WFY1); assay: biochemical
T1 construct: His6 (N); made in house; host or cells: E. coli BL21(DE3)

Mtb = format: cell-based, Mycobacterium tuberculosis
M. tuberculosis H37Rv = assay: microbe, parasite or virus in culture; format: cell-based; conditions: Mycobacterium tuberculosis
TrpAB β reaction = molecular target: T2, TrpAB β reaction (Mycobacterium tuberculosis, UniProt P9WFX9+P9WFY1); assay: biochemical; format: biochemical
T2 construct: His6 (N); made in house; host or cells: E. coli BL21(DE3)

TrpE = tested on: TrpE; set-up: method as in Negatu et al., 2019; conditions: ref Negatu et al., 2019; read-out: IC50 TrpE (allosteric inhibition); cited from earlier work
M. smegmatis mc2155 = assay: microbe, parasite or virus in culture; format: cell-based, Mycobacterium smegmatis; conditions: for MIC: Mycolicibacterium smegmatis, MC2155, read-out: MIC vs M. smegmatis mc2155
M. bovis BCG = assay: microbe, parasite or virus in culture; format: cell-based, Mycobacterium bovis BCG
TrpAB WT = molecular target: T3, TrpAB WT (Mycobacterium tuberculosis, UniProt P9WFX9+P9WFY1); format: biochemical
T3 construct: His6 (N); made in house; host or cells: E. coli BL21(DE3)

[1] = tested on: intracellular Mtb H37Rv in J774 macrophages; format: cell-based, Mycobacterium tuberculosis
J774 macrophages = conditions: 24 hrs, CellTiter-Glo
TrpE WT = molecular target: T4, TrpE WT (Mycobacterium tuberculosis, UniProt P9WFX3); format: biochemical
T4 construct: His6 (N); made in house; host or cells: E. coli BL21(DE3)
T4 sequence (P9WFX3 1-516): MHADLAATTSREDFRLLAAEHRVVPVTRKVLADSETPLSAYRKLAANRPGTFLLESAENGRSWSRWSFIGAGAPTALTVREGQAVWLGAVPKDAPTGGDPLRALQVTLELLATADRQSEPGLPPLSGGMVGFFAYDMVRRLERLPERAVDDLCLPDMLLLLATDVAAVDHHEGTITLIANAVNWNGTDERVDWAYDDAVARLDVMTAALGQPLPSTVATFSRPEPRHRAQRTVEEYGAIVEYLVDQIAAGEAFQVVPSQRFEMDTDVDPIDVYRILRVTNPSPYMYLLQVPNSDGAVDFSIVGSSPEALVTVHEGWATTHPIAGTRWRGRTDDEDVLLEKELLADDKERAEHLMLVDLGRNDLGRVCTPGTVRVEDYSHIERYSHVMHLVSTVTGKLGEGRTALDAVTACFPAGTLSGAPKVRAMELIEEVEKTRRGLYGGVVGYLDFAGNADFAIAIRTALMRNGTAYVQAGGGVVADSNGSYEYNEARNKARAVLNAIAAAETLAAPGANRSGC

T2 sequence (P9WFX9 whole entry): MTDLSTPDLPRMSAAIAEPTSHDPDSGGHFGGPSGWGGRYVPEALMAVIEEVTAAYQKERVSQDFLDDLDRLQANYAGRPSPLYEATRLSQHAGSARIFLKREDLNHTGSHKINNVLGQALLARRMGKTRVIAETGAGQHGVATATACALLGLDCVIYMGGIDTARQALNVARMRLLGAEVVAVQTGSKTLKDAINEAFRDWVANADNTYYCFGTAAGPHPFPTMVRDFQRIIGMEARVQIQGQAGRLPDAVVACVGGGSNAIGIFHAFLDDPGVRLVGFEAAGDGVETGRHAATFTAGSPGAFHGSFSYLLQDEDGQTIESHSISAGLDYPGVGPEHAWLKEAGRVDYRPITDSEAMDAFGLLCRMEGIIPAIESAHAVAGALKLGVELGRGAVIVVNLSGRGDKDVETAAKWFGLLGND
T2 sequence (P9WFY1 whole entry): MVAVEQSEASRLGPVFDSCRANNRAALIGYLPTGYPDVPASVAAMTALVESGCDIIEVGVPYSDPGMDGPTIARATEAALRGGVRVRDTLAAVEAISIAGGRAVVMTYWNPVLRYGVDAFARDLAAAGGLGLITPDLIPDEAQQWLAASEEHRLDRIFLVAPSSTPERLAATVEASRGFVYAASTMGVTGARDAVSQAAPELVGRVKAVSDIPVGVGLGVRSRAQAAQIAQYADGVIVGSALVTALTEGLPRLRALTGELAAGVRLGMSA
T1 sequence (P9WFX9 whole entry): as the sequence (P9WFX9 whole entry) above
T1 sequence (P9WFY1 whole entry): as the sequence (P9WFY1 whole entry) above
T3 sequence (P9WFX9 whole entry): as the sequence (P9WFX9 whole entry) above
T3 sequence (P9WFY1 whole entry): as the sequence (P9WFY1 whole entry) above

| Compound | MIC (M. tuberculosis H37Rv) [µM] | MIC (M. tuberculosis H37Rv; read-out: MIC) [µM] | further results |
| --- | --- | --- | --- |
| Nc1cccc2[nH]ccc12 [4-AI, 4-aminoindole, reference compound] | 4.68 (≈ 0.619 µg/mL) |  | IC50 (TrpAB α reaction): 631 ± 174 µM; increase of MIC on supplementation (Mtb): 4- to 16 fold; MIC (M. tuberculosis H37Rv; read-out: MIC against Mtb): 4.68 µM (≈ 0.619 µg/mL); IC50 (TrpAB β reaction): 649.4 ± 2.5 µM |
| Nc1cccc2[nH]cc(C[C@H](N)C(=O)O)c12 [4-aTrp, 4-amino-L-tryptophan] |  |  | MIC (M. tuberculosis H37Rv; read-out: MIC against Mtb): > 100 µM |
| N[C@@H](Cc1c[nH]c2ccc(F)cc12)C(=O)O [5-fluorotryptophan] |  |  | IC50 (TrpE): 4 µM |
| O=C(O)c1ccc(OCC(F)(F)F)nc1 [C1-COOH, 6-(2,2,2-trifluoroethoxy)nicotinic acid] | 50 (≈ 11.1 µg/mL) |  |  |
| O=C(COc1ccccc1)Nc1cccc2[nH]ccc12 [C2, N-(1H-indol-4-yl)-2-phenoxyacetamide] |  |  | MIC (M. smegmatis mc2155): > 100 µM |
| O=C(O)COc1ccccc1 [C2-COOH, 2-phenoxyacetic acid] | > 100 |  |  |
| O=C(Nc1cccc2[nH]ccc12)C1CCCCC1 [C3, N-(1H-indol-4-yl)cyclohexanecarboxamide] |  | 12.5 (≈ 3.03 µg/mL) | MIC (M. smegmatis mc2155): > 100 µM; MIC vs M. bovis BCG (M. bovis BCG): 50 µM (≈ 12.1 µg/mL); MIC (M. bovis BCG; Mycobacterium tuberculosis variant bovis BCG, BCG, read-out: MIC vs M. bovis BCG): > 100 µM |
| O=C(O)C1CCCCC1 [C3-COOH, cyclohexanecarboxylic acid] | > 100 |  |  |
| O=C(Nc1cccc2[nH]ccc12)c1ccc(OCC(F)(F)F)cn1 [C4, N-(1H-indol-4-yl)-5-(2,2,2-trifluoroethoxy)picolinamide] |  |  | MIC (M. smegmatis mc2155): > 100 µM |
| O=C(O)c1ccc(OCC(F)(F)F)cn1 [C4-COOH, 5-(2,2,2-trifluoroethoxy)picolinic acid] | > 100 |  |  |
| CNS(=O)(=O)c1ccc2c(c1)CCN2C(=O)c1ccc(C)s1 [C5, reference compound] |  | 0.39 (≈ 0.131 µg/mL) | IC50 (TrpAB α reaction): 0.1 ± 0.06 µM; potency with exogenous indole or L-Trp (Mtb): significantly attenuated; IC50 (TrpAB β reaction): 0.37 ± 0.07 µM |
| O=C(Nc1ccc2[nH]ccc2c1)c1ccc(OCC(F)(F)F)nc1 [C6, N-(1H-indol-5-yl)-6-(2,2,2-trifluoroethoxy)nicotinamide] | 50 (≈ 16.8 µg/mL) |  |  |
| O=C(Nc1ccc2cc[nH]c2c1)c1ccc(OCC(F)(F)F)nc1 [C7, N-(1H-indol-6-yl)-6-(2,2,2-trifluoroethoxy)nicotinamide] | 50 (≈ 16.8 µg/mL) |  |  |
| O=C(Nc1cccc2cc[nH]c12)c1ccc(OCC(F)(F)F)nc1 [C8, N-(1H-indol-7-yl)-6-(2,2,2-trifluoroethoxy)nicotinamide] | 9.4 (≈ 3.15 µg/mL) |  |  |
| Cn1ccc2c(NC(=O)c3ccc(OCC(F)(F)F)nc3)cccc21 [C9, N-(1-methyl-1H-indol-4-yl)-6-(2,2,2-trifluoroethoxy)nicotinamide] | 50 (≈ 17.5 µg/mL) |  |  |
| FC(F)(F)COc1ccc(CNc2cccc3[nH]ccc23)cn1 [C10, N-((6-(2,2,2-trifluoroethoxy)pyridin-3-yl)methyl)-1H-indol-4-amine] | 50 (≈ 16.1 µg/mL) |  |  |

| Compound | MIC (M. tuberculosis H37Rv) [µM] | MIC (M. tuberculosis H37Rv; read-out: MIC) [µM] | further results |
| --- | --- | --- | --- |
| O=C(Nc1ccc(OCC(F)(F)F)nc1)c1cccc2[nH]ccc12 [C11, N-(6-(2,2,2-trifluoroethoxy)pyridine-3-yl)-1H-indole-4-carboxamide] | 50 (≈ 16.8 µg/mL) |  |  |
| O=C(Nc1cccc2c1CCN2)c1ccc(OCC(F)(F)F)nc1 [C12, N-(indolin-4-yl)-6-(2,2,2-trifluoroethoxy)nicotinamide] | 50 (≈ 16.9 µg/mL) |  |  |
| CN(C(=O)c1ccc(OCC(F)(F)F)nc1)c1cccc2[nH]ccc12 [C13, N-(1H-indol-4-yl)-N-methyl-6-(2,2,2-trifluoroethoxy)nicotinamide] |  | 25 (≈ 8.73 µg/mL) |  |
| O=C(Nc1cccc2[nH]cnc12)c1ccc(OCC(F)(F)F)cn1 [C14, N-(1H-benzo[d]imidazol-4-yl)-5-(2,2,2-trifluoroethoxy)picolinamide] |  | 50 (≈ 16.8 µg/mL) |  |
| O=C(Nc1ccnc2[nH]ccc12)c1ccc(OCC(F)(F)F)cn1 [C15, N-(1H-pyrrolo[2,3-b]pyridin-4-yl)-5-(2,2,2-trifluoroethoxy)picolinamide] |  | 50 (≈ 16.8 µg/mL) |  |
| O=C(Nc1cccc2[nH]ccc12)c1ccc(OCC(F)(F)F)nn1 [C16, N-(1H-indol-4-yl)-6-(2,2,2-trifluoroethoxy)pyridazine-3-carboxamide] |  | 2.3 (≈ 0.773 µg/mL) |  |
| Cc1ccc(OCC(=O)Nc2cccc3[nH]ccc23)cc1 [C17, N-(1H-indol-4-yl)-2-(p-tolyloxy)acetamide] |  | 1.56 (≈ 0.437 µg/mL) |  |
| O=C(COCC1CC1)Nc1cccc2[nH]ccc12 [C18, 2-(cyclopropylmethoxy)-N-(1H-indol-4-yl)acetamide] |  | 3.13 (≈ 0.765 µg/mL) |  |
| O=C(Nc1cccc2[nH]ccc12)[C@H]1C[C@@H](Oc2ccccc2)C1 [C19, (1s,3s)-N-(1H-indol-4-yl)-3-phenoxycyclobutane-1-carboxamide] |  | 3.13 (≈ 0.959 µg/mL) |  |
| CN(CC(F)(F)F)c1ccc(C(=O)Nc2cccc3[nH]ccc23)cn1 [C20, N-(1H-indol-4-yl)-6-(methyl(2,2,2-trifluoroethyl)amino)nicotinamide] |  | 4.7 (≈ 1.64 µg/mL) |  |
| Cc1ccc(C(=O)Nc2cccc3[nH]ccc23)o1 [C21, N-(1H-indol-4-yl)-5-methylfuran-2-carboxamide] |  | 6.25 (≈ 1.5 µg/mL) |  |
| O=P(O)(O)OC[C@@H](O)[C@H](O)c1c[nH]c2ccccc12 [IGP, indole-3-glycerol phosphate] |  |  | Km (TrpAB WT; read-out: apparent KM IGP): 76.9 ± 1.1 µM |
| NNC(=O)c1ccncc1 [INH, isoniazid, reference compound] |  | 0.16 (≈ 0.0219 µg/mL) |  |
| N[C@@H](CO)C(=O)O [L-Ser, L-serine] |  |  | Km (TrpAB WT; read-out: apparent KM L-Ser): 550 ± 230 µM; Km (TrpAB β reaction; read-out: KM L-Ser of TrpAB β-half reaction): 2900 ± 300 µM |
| N-(1H-indol-4-yl)-6-(2,2,2-trifluoroethoxy)nicotinamide [C1] |  |  | MIC vs M. smegmatis mc2155 (M. smegmatis mc2155): > 100 µM; reduction in intracellular Mtb titer [1]: 1.5 log; toxicity to J774 macrophages (J774 macrophages): not toxic; IC50 (TrpE WT): 242 ± 53 µM |
